Data published in patent US12435061B2 (priority 2020, dated 2025).
Like-named read-outs stand apart in the source and are kept apart here.

Target: hTRPV3 (Homo sapiens (Human), UniProt Q8NET8)
Assay: Whole-cell patch clamp, hTRPV3 Phase 1 / Phase 2 currents
Assay type: cell-based
Outline: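 Whole-cell recordings on induced TRPV3 cells replated on coverslips, held at −40 mV with 400 ms ramps from −120 to +100 mV every 5 s; currents read at −80 and +80 mV. Ringer's external solution; current activated by heating to ≥28 °C or 20 μM 2-APB.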

[1] = Phase 1 current, inward, whole-cell patch clamp, read-out: hTRPV3 Patch P1 Inwd
[2] = Phase 1 current, read-out: hTRPV3 (nM) (Phase 1)
[3] = Phase 2 current, inward, whole-cell patch clamp, read-out: hTRPV3 Patch P2 Inwd
[4] = Phase 2 current, read-out: hTRPV3 (nM) (Phase 2)

Chain of hTRPV3 (Q8NET8 whole entry): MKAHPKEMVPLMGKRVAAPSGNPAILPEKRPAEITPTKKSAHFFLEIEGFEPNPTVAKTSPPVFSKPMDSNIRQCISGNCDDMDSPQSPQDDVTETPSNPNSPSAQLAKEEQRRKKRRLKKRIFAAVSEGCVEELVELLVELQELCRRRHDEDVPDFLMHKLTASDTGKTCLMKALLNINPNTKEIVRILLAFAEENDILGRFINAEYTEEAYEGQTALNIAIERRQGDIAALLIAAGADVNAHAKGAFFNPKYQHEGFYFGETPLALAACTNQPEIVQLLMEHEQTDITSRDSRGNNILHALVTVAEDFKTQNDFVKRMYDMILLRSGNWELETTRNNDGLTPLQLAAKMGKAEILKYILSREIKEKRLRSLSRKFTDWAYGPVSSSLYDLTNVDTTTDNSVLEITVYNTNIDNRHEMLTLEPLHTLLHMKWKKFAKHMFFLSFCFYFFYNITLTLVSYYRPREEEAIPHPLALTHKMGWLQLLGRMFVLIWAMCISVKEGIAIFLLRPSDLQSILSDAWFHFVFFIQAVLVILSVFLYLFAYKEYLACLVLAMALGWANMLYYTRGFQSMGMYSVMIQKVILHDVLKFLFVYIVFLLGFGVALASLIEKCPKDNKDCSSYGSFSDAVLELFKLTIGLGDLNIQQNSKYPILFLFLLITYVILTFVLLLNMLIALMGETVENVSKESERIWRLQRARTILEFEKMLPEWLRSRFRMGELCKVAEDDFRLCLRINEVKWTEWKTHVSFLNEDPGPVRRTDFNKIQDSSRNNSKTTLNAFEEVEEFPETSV

With `Cc1ccc(O[C@H]2CCN(c3ccc(-c4ccccn4)nc3CO)C2)nc1` [Compound 1-244, (S)-(5-(3-(5-methylpyridin-2-yloxy)pyrrolidin-1-yl)-2, 2′-bipyridin-6-yl)methanol] the IC50 [1] was > 1000 nM and the IC50 [2] was 4650 nM.

In the case of `OCc1nc(-c2ncccn2)ccc1N1CC[C@H](Oc2ccc(C(F)(F)F)cn2)C1` [Compound 1-245, (S)-(6-(pyrimidin-2-yl)-3-(3-(5-(trifluoromethyl)pyridin-2-yloxy)pyrrolidin-1-yl)pyridin-2-yl)methanol], the IC50 [1] is reported as > 1000 nM and the IC50 [2] is reported as > 3200 nM.

`N#Cc1ccc(-c2ccc(N3CC[C@H](Oc4ccc(C(F)(F)F)cn4)C3)c(CO)c2)cc1` [Compound 1-252, (S)-3′-(hydroxymethyl)-4′-(3-(5-(trifluoromethyl)pyridin-2-yloxy)pyrrolidin-1-yl)biphenyl-4-carbonitrile] showed an IC50 [1] of 100 to 1000 nM and an IC50 [2] of 886 nM.

With `NC(=O)c1ccc(-c2ccc(N3CC[C@H](Oc4ccc(C(F)(F)F)cn4)C3)c(CO)c2)cc1` [Compound 1-253, (S)-3′-(hydroxymethyl)-4′-(3-(5-(trifluoromethyl)pyridin-2-yloxy)pyrrolidin-1-yl)biphenyl-4-carboxamide] the IC50 [1] was > 1000 nM and the IC50 [2] was > 3200 nM.

`OCc1cc(-c2ccccn2)ccc1N1CC[C@H](Oc2ccc(C(F)(F)F)cn2)C1` [Compound 1-254, (S)-(5-(pyridin-2-yl)-2-(3-(5-(trifluoromethyl)pyridin-2-yloxy)pyrrolidin-1-yl)phenyl) methanol] was tested, and the IC50 [1] was > 1000 nM and the IC50 [2] was 1290 nM.

In the case of `Cc1cccnc1-c1ccc(N2CC[C@H](Oc3ccc(C(F)(F)F)cn3)C2)c(CO)c1` [Compound 1-255, (S)-(5-(3-methylpyridin-2-yl)-2-(3-(5-(trifluoromethyl)pyridin-2-yloxy)pyrrolidin-1-yl)phenyl)methanol], the IC50 [1] is reported as 100 to 1000 nM and the IC50 [2] is reported as 806 nM.

Work on `Cc1ccc(O[C@H]2CCN(c3ccc(-c4ccccc4CN(C)C(=O)OC(C)(C)C)nc3CO)C2)nc1` [Compound 1-258, (S)-tert-butyl 2-(6-(hydroxymethyl)-5-(3-(5-methylpyridin-2-yloxy)pyrrolidin-1-yl)pyridin-2-yl)benzyl (methyl)carbamate] yielded an IC50 [1] of 100 to 1000 nM and an IC50 [2] of 276 nM.

For `Cc1ccc(O[C@H]2CCN(c3ccc(-c4ncccc4C)cc3CO)C2)nc1` [Compound 1-259, (S)-(5-(3-methylpyridin-2-yl)-2-(3-(5-methylpyridin-2-yloxy)pyrrolidin-1-yl)phenyl) methanol], the IC50 [1] was > 1000 nM, the IC50 [2] was 3050 nM and the IC50 [3] was > 1000 nM. It also gave an IC50 [4] of 2260 nM.

With `CCc1ccccc1C(O)c1ccc(N2CC[C@H](Oc3ncccc3Cl)C2)c(CO)c1` (stereo partly drawn) [Compound 1-260, (4-((S)-3-(3-chloropyridin-2-yloxy)pyrrolidin-1-yl)-3-(hydroxymethyl)phenyl)(2-ethylphenyl)methanol] the IC50 [1] was > 1000 nM and the IC50 [2] was 3150 nM.

In the case of `OCc1ccc(-c2ccc(N3CC[C@H](Oc4ccc(C(F)(F)F)cn4)C3)c(CO)c2)cc1` [Compound 1-261, (S)-(4-(3-(5-(trifluoromethyl)pyridin-2-yloxy)pyrrolidin-1-yl)biphenyl-3,4′-diyl)dimethanol], the IC50 [1] is reported as 100 to 1000 nM and the IC50 [2] is reported as 604 nM.

With `O=C(c1ccc(N2CC[C@H](Oc3ncccc3Cl)C2)c(CO)c1)c1ccccc1Cl` [Compound 1-263, (S)-(2-chlorophenyl)(4-(3-(3-chloropyridin-2-yloxy)pyrrolidin-1-yl)-3-(hydroxymethyl)phenyl)methanone] the IC50 [1] was 100 to 1000 nM and the IC50 [2] was 444 nM.

With `O=C(c1ccc(N2CC[C@H](Oc3ncccc3F)C2)c(CO)c1)c1ccccc1Cl` [Compound 1-265, (S)-(2-chlorophenyl)(4-(3-(3-fluoropyridin-2-yloxy)pyrrolidin-1-yl)-3-(hydroxymethyl)phenyl)methanone] the IC50 [1] was > 1000 nM and the IC50 [2] was 1780 nM.

In the case of `CCCc1ccccc1Oc1ccc(N2CC[C@H](Oc3ncccc3Cl)C2)c(CO)c1` [Compound 1-266, (S)-(2-(3-(3-chloropyridin-2-yloxy)pyrrolidin-1-yl)-5-(2-propylphenoxy)phenyl)methanol], the IC50 [1] is reported as < 10 nM and the IC50 [2] is reported as 2.65 nM.

In the case of `CC(C)(C)OC(=O)NCc1ccc(-c2ccc(N3CC[C@H](Oc4ccc(C(F)(F)F)cn4)C3)c(CO)c2)cc1` [Compound 1-269, (S)-tert-butyl (3′-(hydroxymethyl)-4′-(3-(5-(trifluoromethyl)pyridin-2-yloxy)pyrrolidin-1-yl)biphenyl-4-yl)methylcarbamate], the IC50 [1] is reported as > 1000 nM and the IC50 [2] is reported as > 3200 nM.

For `CC(C)c1ccccc1Oc1ccc(N2CC[C@H](Oc3ncccc3Cl)C2)c(CO)c1` [Compound 1-271, (S)-(2-(3-(3-chloropyridin-2-yloxy)pyrrolidin-1-yl)-5-(2-isopropylphenoxy)phenyl)methanol], the IC50 [1] was < 10 nM and the IC50 [2] was 2.01 nM.

With `OCc1cc(C2CCOCC2)ccc1N1CC[C@H](Oc2ccc(C(F)(F)F)cn2)C1` [Compound 1-276, (S)-(5-(tetrahydro-2H-pyran-4-yl)-2-(3-(5-(trifluoromethyl)pyridin-2-yloxy)pyrrolidin-1-yl)phenyl)methanol] the IC50 [1] was > 1000 nM and the IC50 [2] was > 3200 nM.

For `OCc1cc(C(O)c2ccc(F)cc2)ccc1N1CC[C@H](Oc2ncccc2Cl)C1` (stereo partly drawn) [Compound 1-278, (4-((S)-3-(3-chloropyridin-2-yloxy)pyrrolidin-1-yl)-3-(hydroxymethyl)phenyl)(4-fluorophenyl)methanol], the IC50 [1] was 100 to 1000 nM and the IC50 [2] was 254 nM.

In the case of `OCc1cc(C2=CCOCC2)ccc1N1CC[C@H](Oc2ccc(C(F)(F)F)cn2)C1` [Compound 1-280, (S)-(5-(3,6-dihydro-2H-pyran-4-yl)-2-(3-(5-(trifluoromethyl)pyridin-2-yloxy)pyrrolidin-1-yl)phenyl)methanol], the IC50 [1] is reported as > 1000 nM and the IC50 [2] is reported as ~3600 nM.

For `Cc1cccc(C(O)c2ccc(N3CC[C@H](Oc4ncccc4Cl)C3)c(CO)c2)c1` (stereo partly drawn) [Compound 1-281, (4-((S)-3-(3-chloropyridin-2-yloxy)pyrrolidin-1-yl)-3-(hydroxymethyl)phenyl)(m-tolyl)methanol], the IC50 [1] was > 1000 nM and the IC50 [2] was 1100 nM.

Molecule `OCc1cc(Oc2ccc(Cl)cc2)ccc1N1CC[C@H](Oc2ccccn2)C1` [Compound 1-283] has an IC50 [1] of 100 to 1000 nM and an IC50 [2] of 283 nM.

`OCc1cc(Br)ccc1N1C[C@@H](O)[C@H](Oc2ccc(C(F)(F)F)cn2)C1` [Compound 1-284] was tested, and the IC50 [1] was > 1000 nM and the IC50 [2] was 1630 nM.

With `OCc1cc(Oc2ccc(Cl)cc2)ccc1N1C[C@@H](O)[C@H](Oc2ccc(C(F)(F)F)cn2)C1` [Compound 1-285] the IC50 [1] was > 1000 nM, the IC50 [2] was > 3200 nM and the IC50 [3] was > 1000 nM. It also gave an IC50 [4] of ~4900 nM.

In the case of `COCc1ccc(C(=O)c2ccc(N3CC[C@H](Oc4ncccc4Cl)C3)c(CO)c2)cc1` [Compound 1-286], the IC50 [1] is reported as 100 to 1000 nM and the IC50 [2] is reported as 607 nM.

For `Cc1ccc(C(O)c2ccc(N3CC[C@H](Oc4ncccc4Cl)C3)c(CO)c2)cc1` (stereo partly drawn) [Compound 1-287, (4-((S)-3-(3-chloropyridin-2-yloxy)pyrrolidin-1-yl)-3-(hydroxymethyl)phenyl)(p-tolyl)methanol], the IC50 [1] was 100 to 1000 nM and the IC50 [2] was 674 nM.

For `O=C(c1ccc(Cl)cc1)c1ccc(N2CC[C@H](Oc3ncccc3Cl)C2)c(CO)c1` [Compound 1-288, (S)-(4-chlorophenyl)(4-(3-(3-chloropyridin-2-yloxy)pyrrolidin-1-yl)-3-(hydroxymethyl)phenyl)methanone], the IC50 [1] was 10 to 100 nM.

`COCc1ccc(C(O)c2ccc(N3CC[C@H](Oc4ncccc4Cl)C3)c(CO)c2)cc1` (stereo partly drawn) [Compound 1-290, (4-((S)-3-(3-chloropyridin-2-yloxy)pyrrolidin-1-yl)-3-(hydroxymethyl)phenyl)(4-(methoxymethyl)phenyl)methanol] was tested, and the IC50 [1] was > 1000 nM, the IC50 [2] was > 3200 nM and the IC50 [3] was > 1000 nM. For the same molecule, the IC50 [4] was > 3200 nM.

In the case of `O=C(c1ccc(Cl)cc1)c1ccc(N2CC[C@H](Oc3ncccc3Cl)C2)c(CCO)c1` [Compound 1-291, (S)-(4-chlorophenyl)(4-(3-(3-chloropyridin-2-yloxy)pyrrolidin-1-yl)-3-(2-hydroxyethyl)phenyl)methanone], the IC50 [1] is reported as 100 to 1000 nM, the IC50 [2] is reported as ~188 nM and the IC50 [3] is reported as 100 to 1000 nM. The IC50 [4] was ~217 nM.

`OCCc1cc(C(O)c2ccc(Cl)cc2)ccc1N1CC[C@H](Oc2ncccc2Cl)C1` (stereo partly drawn) [Compound 1-292, 2-(5-((4-chlorophenyl)(hydroxy)methyl)-2-((S)-3-(3-chloropyridin-2-yloxy)pyrrolidin-1-yl)phenyl)ethanol] was tested, and the IC50 [1] was > 1000 nM, the IC50 [2] was ~4900 nM and the IC50 [3] was > 1000 nM. It also gave an IC50 [4] of ~5100 nM.

`O=C(c1ccc(F)cc1)c1ccc(N2CC[C@H](Oc3ncccc3F)C2)c(CO)c1` [Compound 1-293, (S)-(4-fluorophenyl)(4-(3-(3-fluoropyridin-2-yloxy)pyrrolidin-1-yl)-3-(hydroxymethyl)phenyl)methanone] was tested, and the IC50 [1] was 100 to 1000 nM, the IC50 [2] was 329 nM and the IC50 [3] was 100 to 1000 nM. The IC50 [4] was 322 nM.

In the case of `O=C(c1ccc(F)cc1)c1ccc(N2CC[C@H](Oc3ncccc3Cl)C2)c(CCO)c1` [Compound 1-294, (S)-(4-(3-(3-chloropyridin-2-yloxy)pyrrolidin-1-yl)-3-(2-hydroxyethyl)phenyl)(4-fluorophenyl)methanone], the IC50 [1] is reported as 100 to 1000 nM, the IC50 [2] is reported as 511 nM and the IC50 [3] is reported as 100 to 1000 nM. For the same molecule, the IC50 [4] was 502 nM.

Molecule `Cc1ccc(C(=O)c2ccc(N3CC[C@H](Oc4ncccc4Cl)C3)c(CCO)c2)cc1` [Compound 1-295, (S)-(4-(3-(3-chloropyridin-2-yloxy)pyrrolidin-1-yl)-3-(2-hydroxyethyl)phenyl)(p-tolyl)methanone] has an IC50 [1] of 100 to 1000 nM, an IC50 [2] of ~225 nM and an IC50 [3] of 100 to 1000 nM. The IC50 [4] was ~178 nM.

For `OCCc1cc(C(O)c2ccc(F)cc2)ccc1N1CC[C@H](Oc2ncccc2Cl)C1` (stereo partly drawn) [Compound 1-296, 2-(2-((S)-3-(3-chloropyridin-2-yloxy)pyrrolidin-1-yl)-5-((4-fluorophenyl)(hydroxy)methyl)phenyl)ethanol], the IC50 [1] was > 1000 nM, the IC50 [2] was 1070 nM and the IC50 [3] was > 1000 nM. The IC50 [4] was 2160 nM.
